Data on 29 compounds can be found in patent US20090105305A1, “Therapeutic Agents - 550” (AstraZeneca AB, priority 2006, published 2009).

The target in this test is T1, human Fatty Acid Synthase (Homo sapiens, UniProt P49327).
T1 construct: made in house
Kind of test: Human FAS enzyme assay (decrease in NADPH fluorescence). Type of test: biochemical. Conditions: for inhibition at 100 µM: % inhibition at a concentration of 100 micromolar; for IC50s in the range of about 0.001 μM to about 30 μM: compounds excluded from the claims by proviso. From the text:
The compounds of the present invention are Fatty Acid Synthase inhibitors. […] Human and Rat FAS Enzyme Assay.
Fatty acid synthase is an enzyme complex that harbours seven enzymatic activities catalysing the reductive synthesis of long chain fatty acids from acetyl CoA and malonyl CoA to palmitate. When acetyl CoA and malonyl CoA are forming palmitate NADPH is consumed forming NADP. Since NADPH is fluorescent but not NADP the reaction can be measured by analysing the decrease in fluorescence.
Compounds were added to a black 384 well plate (Matrix) in a volume of 5 μl consisting of 20% DMSO and 80% Tris buffer pH 7.5, at a top concentration of 1 mM. NADPH, 30 μl of 166.6 μM, formulated in assay buffer (0.1M Tris ph7.5, 0.1 mM EDTA, 1 mM glutathione, 0.05% BSA), was then added to all of the wells of the plate. Fatty acid synthase Human or rat enzyme (0.4 μg, produced in house), dissolved in 20 mM Tris/HCl pH 7.5, 5 mM BOG, 1 mM TCEP, 10% glycerol, 1 mM EDTA, 150 mM NaCl, was then added to the plate in a volume of […]. Enzyme was added to all but the last two columns of the plate, to which, 10 μl of assay buffer was added (0.1M Tris ph7.5, 0.1 mM EDTA, 1 mM glutathione, 0.05% BSA) to provide a no enzyme assay control. Following a 15-minute incubation period, at room temperature, the plates were read on an Envision plate reader using 340 nm excitation and 460 nm emission filters. This served as a time zero background read. Substrates (an equal mix of both malonyl and acetyl CoA) were then added to the plates in a total volume of 5 μl. The concentrations of malonyl and acetyl CoA in the mixture were 500 μM and 150 μM respectively. Both were prepared as 10 mM stock solutions in distilled water and were subsequently diluted to working concentrations in assay buffer. Plates were then incubated for a further 60 minutes, at room temperature, before being read again on the Envision reader using the same parameters as previously used. The data was analysed by subtracting the background time zero data from that generated following the final 60 minute incubate and the percent inhibition compared to the maximum and minimum assay controls was determined. Sigmoid curves were fitted using Origin 7.5 Client software and IC50 values were determined.

T1 sequence (P49327 whole entry): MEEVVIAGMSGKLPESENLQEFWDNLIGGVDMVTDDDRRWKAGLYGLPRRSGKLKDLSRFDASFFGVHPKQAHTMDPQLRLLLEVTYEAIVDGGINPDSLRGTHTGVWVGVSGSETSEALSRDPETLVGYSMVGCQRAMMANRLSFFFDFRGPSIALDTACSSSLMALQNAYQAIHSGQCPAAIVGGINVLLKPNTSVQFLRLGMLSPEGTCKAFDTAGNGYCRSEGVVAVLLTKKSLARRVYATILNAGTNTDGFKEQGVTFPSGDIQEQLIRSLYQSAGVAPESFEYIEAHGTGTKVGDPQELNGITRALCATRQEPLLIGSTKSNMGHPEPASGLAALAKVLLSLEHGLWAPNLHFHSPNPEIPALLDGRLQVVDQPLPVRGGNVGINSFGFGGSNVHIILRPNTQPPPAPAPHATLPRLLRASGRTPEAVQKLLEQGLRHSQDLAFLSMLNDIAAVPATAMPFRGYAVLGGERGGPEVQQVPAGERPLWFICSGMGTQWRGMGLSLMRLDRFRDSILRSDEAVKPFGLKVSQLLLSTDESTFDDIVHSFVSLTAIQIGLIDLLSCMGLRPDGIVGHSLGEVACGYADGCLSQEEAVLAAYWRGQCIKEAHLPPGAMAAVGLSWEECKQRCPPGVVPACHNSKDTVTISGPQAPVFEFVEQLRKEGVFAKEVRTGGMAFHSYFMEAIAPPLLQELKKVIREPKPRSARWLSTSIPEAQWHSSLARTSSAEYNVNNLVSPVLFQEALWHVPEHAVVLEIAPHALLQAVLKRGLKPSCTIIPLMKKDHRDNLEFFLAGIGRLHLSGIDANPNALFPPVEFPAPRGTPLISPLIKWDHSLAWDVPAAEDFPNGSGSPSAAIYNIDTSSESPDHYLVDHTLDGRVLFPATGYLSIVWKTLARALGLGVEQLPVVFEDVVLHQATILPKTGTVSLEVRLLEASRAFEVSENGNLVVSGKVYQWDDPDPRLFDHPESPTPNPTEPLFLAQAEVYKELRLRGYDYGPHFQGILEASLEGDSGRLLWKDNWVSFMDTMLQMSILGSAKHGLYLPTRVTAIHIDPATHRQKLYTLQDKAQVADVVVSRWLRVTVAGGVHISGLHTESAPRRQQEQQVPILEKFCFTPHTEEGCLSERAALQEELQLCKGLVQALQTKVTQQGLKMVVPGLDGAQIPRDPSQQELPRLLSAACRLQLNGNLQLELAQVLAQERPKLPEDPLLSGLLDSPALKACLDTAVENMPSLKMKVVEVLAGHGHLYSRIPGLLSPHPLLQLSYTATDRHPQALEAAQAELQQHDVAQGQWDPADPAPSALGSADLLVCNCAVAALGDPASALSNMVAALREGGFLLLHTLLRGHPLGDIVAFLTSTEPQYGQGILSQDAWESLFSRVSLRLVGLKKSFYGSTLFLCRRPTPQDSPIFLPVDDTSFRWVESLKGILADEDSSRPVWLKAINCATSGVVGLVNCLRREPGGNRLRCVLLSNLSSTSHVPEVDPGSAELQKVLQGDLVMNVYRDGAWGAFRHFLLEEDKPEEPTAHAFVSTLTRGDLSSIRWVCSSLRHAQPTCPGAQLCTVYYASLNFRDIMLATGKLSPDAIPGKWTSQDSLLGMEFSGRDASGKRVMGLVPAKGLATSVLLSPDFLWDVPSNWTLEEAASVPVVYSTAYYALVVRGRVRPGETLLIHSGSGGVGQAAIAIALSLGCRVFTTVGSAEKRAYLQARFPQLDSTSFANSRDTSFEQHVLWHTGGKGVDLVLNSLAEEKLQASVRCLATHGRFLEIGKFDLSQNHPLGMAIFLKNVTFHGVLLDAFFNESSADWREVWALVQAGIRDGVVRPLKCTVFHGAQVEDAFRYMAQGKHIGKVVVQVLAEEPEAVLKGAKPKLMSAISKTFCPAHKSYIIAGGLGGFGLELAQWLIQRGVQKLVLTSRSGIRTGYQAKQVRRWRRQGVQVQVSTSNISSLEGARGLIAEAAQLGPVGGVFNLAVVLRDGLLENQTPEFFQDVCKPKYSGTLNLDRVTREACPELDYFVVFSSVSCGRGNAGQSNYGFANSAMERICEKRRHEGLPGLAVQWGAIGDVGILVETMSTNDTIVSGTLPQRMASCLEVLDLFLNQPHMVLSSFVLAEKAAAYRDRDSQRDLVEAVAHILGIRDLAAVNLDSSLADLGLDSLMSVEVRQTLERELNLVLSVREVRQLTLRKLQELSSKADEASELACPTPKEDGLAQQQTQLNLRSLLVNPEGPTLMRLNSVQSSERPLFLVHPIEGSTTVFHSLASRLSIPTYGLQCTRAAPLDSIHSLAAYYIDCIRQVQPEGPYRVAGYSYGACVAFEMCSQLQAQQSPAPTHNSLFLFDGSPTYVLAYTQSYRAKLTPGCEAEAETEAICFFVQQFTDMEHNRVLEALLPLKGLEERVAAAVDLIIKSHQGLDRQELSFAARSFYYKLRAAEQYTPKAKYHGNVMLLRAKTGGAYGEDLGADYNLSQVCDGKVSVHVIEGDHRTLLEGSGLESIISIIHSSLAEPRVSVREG

`Cc1ccc(C(=O)N2CCC(c3ccc(C#N)c(F)c3)CC2)cc1NS(C)(=O)=O` [Example 179, N-[5-[4-(4-cyano-3-fluorophenyl)piperidine-1-carbonyl]-2-methylphenyl]methanesulfonamide]: the inhibition (usually the change of the read-out against control, counted positive when it falls) at 100 µM worked out at 85%.

Regarding `Cc1ccc(C(=O)N2CCC(c3ccc(-c4ncccn4)cc3)CC2)cc1NS(C)(=O)=O` [N-[2-methyl-5-[4-(4-pyrimidin-2-ylphenyl)piperidine-1-carbonyl]phenyl]methanesulfonamide], the “IC50s in the range of about 0.001 μM to about 30 μM” value (from here on “IC50s in the range”) was “do not have IC50s in the range of about 0.001 μM to about 30 μM”.

With `Cc1ccc(C(=O)N2CCC(c3ccc(C#N)cc3)CC2)cc1NS(=O)(=O)c1ccccc1` [Example 10, N-[5-[4-(4-cyanophenyl)piperidine-1-carbonyl]-2-methyl-phenyl]benzenesulfonamide], the inhibition at 100 µM worked out at 78%.

On to `Cc1ccc(C(=O)N2CCC(c3ccc(Cl)cc3)CC2)cc1NS(=O)(=O)C1CCS(=O)(=O)C1` (centres unmarked) [Example 216, N-[5-[4-(4-chlorophenyl)piperidine-1-carbonyl]-2-methylphenyl]-1,1-dioxothiolane-3-sulfonamide], for which the inhibition at 100 µM was found to be 89%.

On to `Cc1ccc(C(=O)N2CCC(c3ccc(C#N)cc3)CC2)cc1NS(=O)(=O)CCNS(C)(=O)=O` [Example 77, N-[5-[4-(4-cyanophenyl)piperidine-1-carbonyl]-2-methyl-phenyl]-2-methanesulfonamido-ethanesulfonamide], for which the inhibition at 100 µM was 98%.

`CCc1ccc(C(=O)N2CCC(c3ccc(C#N)cc3)CC2)cc1NS(=O)(=O)C1CCS(=O)(=O)C1` (centres unmarked) [Example 124, N-[5-[4-(4-cyanophenyl)piperidine-1-carbonyl]-2-ethyl-phenyl]-1,1-dioxo-thiolane-3-sulfonamide]: the inhibition at 100 µM was 82%.

On to `Cc1ccc(C(=O)N2CCC(c3ccc(CNC(=O)CO)cc3)CC2)cc1NS(C)(=O)=O` [Example 241, 2-hydroxy-N-[[4-[1-(3-methanesulfonamido-4-methylbenzoyl)piperidin-4-yl]phenyl]methyl]acetamide], for which the inhibition at 100 µM came out at 81.5%.

As to `C[S+]([O-])c1ccc(C(=O)N2CCC(c3ccc(C#N)cc3)CC2)cc1NS(C)(=O)=O` (centres unmarked) [N-[5-[4-(4-cyanophenyl)piperidine-1-carbonyl]-2-methylsulfinylphenyl]methanesulfonamide], the “IC50s in the range” value is “do not have IC50s in the range of about 0.001 μM to about 30 μM”.

Regarding `Cc1ccc(NS(=O)(=O)Cc2ccccc2)cc1C(=O)N1CCC(c2ccc(C#N)cc2)CC1` [Example 8, N-[3-[4-(4-cyanophenyl)piperidine-1-carbonyl]-4-methyl-phenyl]-1-phenyl-methanesulfonamide], the inhibition at 100 µM is 82%.

Consider `Cc1ccc(C(=O)N2CCC(c3ccc(C#N)cc3)CC2)cc1NS(=O)(=O)CCNS(=O)(=O)C(C)C` [Example 80, N-[2-[[5-[4-(4-cyanophenyl)piperidine-1-carbonyl]-2-methyl-phenyl]sulfamoyl]ethyl]propane-2-sulfonamide], for which the inhibition at 100 µM is 90%.

`C=CS(=O)(=O)Nc1cc(C(=O)N2CCC(c3ccc(C#N)cc3)CC2)ccc1C` [Example 98, N-[5-[4-(4-cyanophenyl)piperidine-1-carbonyl]-2-methyl-phenyl]ethenesulfonamide]: the inhibition at 100 µM was determined as 110%.

For the compound `Cc1ccc(C(=O)N2CCC(c3ccc(CS(C)(=O)=O)cc3)CC2)cc1NS(C)(=O)=O` [Example 223, N-[2-methyl-5-[4-[4-(methylsulfonylmethyl)phenyl]piperidine-1-carbonyl]phenyl]-methanesulfonamide], the inhibition at 100 µM was 74%.

With `Cc1ccc(C(=O)N2CCC(c3ccc(C#N)cc3)CC2)cc1NS(=O)(=O)c1cn(C)cn1` [Example 94, N-[5-[4-(4-cyanophenyl)piperidine-1-carbonyl]-2-methyl-phenyl]-1-methyl-imidazole-4-sulfonamide], the inhibition at 100 µM is 86%.

As to `Cc1ccc(C(=O)N2CCC(c3ccc(CC(=O)N(C)C)cc3)CC2)cc1NS(C)(=O)=O` [2-[4-[1-(3-methanesulfonamido-4-methylbenzoyl)piperidin-4-yl]phenyl]-N,N-dimethylacetamide], the “IC50s in the range” value was “do not have IC50s in the range of about 0.001 μM to about 30 μM”.

`Cc1ccc(C2CCN(C(=O)c3ccc(C)c(NS(C)(=O)=O)c3)CC2)cc1` [Example 158, N-[2-methyl-5-[4-(4-methylphenyl)piperidine-1-carbonyl]phenyl]methanesulfonamide]: the inhibition at 100 µM turned out to be 81%.

For `Cc1ccc(C(=O)N2CCC(c3ccc(C#N)cc3)CC2)cc1NS(=O)(=O)CC1CCCC1` [Example 16, N-[5-[4-(4-cyanophenyl)piperidine-1-carbonyl]-2-methyl-phenyl]-1-cyclopentyl-methanesulfonamide], the inhibition at 100 µM worked out at 95%.

For the compound `Cc1ccc(C(=O)N2CCC(c3ccc(CN)cc3)CC2)cc1NS(C)(=O)=O` [N-[5-[4-[4-(aminomethyl)phenyl]piperidine-1-carbonyl]-2-methylphenyl]methanesulfonamide], the “IC50s in the range” value is recorded as “do not have IC50s in the range of about 0.001 μM to about 30 μM”.

For `Cc1ccc(C(=O)N2CCC(c3ccc(C#N)cc3)CC2)cc1NS(=O)(=O)CC(C)C` [Example 64, N-[5-[4-(4-cyanophenyl)piperidine-1-carbonyl]-2-methyl-phenyl]-2-methyl-propane-1-sulfonamide], the inhibition at 100 µM is 83%.

Take `Cc1ccc(C(=O)N2CCC(c3ccc(C#N)cc3)CC2)cc1NS(=O)(=O)C1CCCCC1` [Example 17, N-[5-[4-(4-cyanophenyl)piperidine-1-carbonyl]-2-methyl-phenyl]cyclohexanesulfonamide]: the inhibition at 100 µM was 94%.

As to `Cc1ccc(C(=O)N2CCC(c3ccc(S(C)(=O)=O)cc3)CC2)cc1NS(C)(=O)=O` [Example 68, N-[2-methyl-5-[4-(4-methylsulfonylphenyl)piperidine-1-carbonyl]phenyl]methanesulfonamide], the inhibition at 100 µM amounted to 74%.

For the compound `N#Cc1ccc(C2CCN(C(=O)c3ccc(C#N)c(NS(=O)(=O)Cc4ccccc4)c3)CC2)cc1` [Example 196, N-[2-cyano-5-[4-(4-cyanophenyl)piperidine-1-carbonyl]phenyl]-1-phenylmethane-sulfonamide], the inhibition at 100 µM was determined as 96%.

With `Cc1ccc(C(=O)N2CCC(c3ccc(C#N)cc3)CC2)cc1NS(=O)(=O)c1cccc(C(=O)NCCO)c1` [Example 84, 3-[[5-[4-(4-cyanophenyl)piperidine-1-carbonyl]-2-methyl-phenyl]sulfamoyl]-N-(2-hydroxyethyl)benzamide], the inhibition at 100 µM stood at 92%.

For `Cc1ccc(NS(=O)(=O)c2ccccc2C#N)cc1C(=O)N1CCC(c2ccc(C#N)cc2)CC1` [Example 46, 2-cyano-N-[3-[4-(4-cyanophenyl)piperidine-1-carbonyl]-4-methyl-phenyl]benzenesulfonamide], the inhibition at 100 µM worked out at 79%.

As for `Cc1ccc(C(=O)N2CCC(c3ccc(S(=O)(=O)N4CCN(C)CC4)cc3)CC2)cc1NS(C)(=O)=O` [N-[2-methyl-5-[4-[4-(4-methylpiperazin-1-yl)sulfonylphenyl]piperidine-1-carbonyl]phenyl]methanesulfonamide], the “IC50s in the range” value was “do not have IC50s in the range of about 0.001 μM to about 30 μM”.

Consider `Cc1ccc(C(=O)N2CCC(c3ccc(-c4nccs4)cc3)CC2)cc1NS(C)(=O)=O` [Example 170, N-[2-methyl-5-[4-[4-(1,3-thiazol-2-yl)phenyl]piperidine-1-carbonyl]phenyl]methanesulfonamide], for which the inhibition at 100 µM came out at 74%.

In the case of `COc1ccc(C(=O)N2CCC(c3ccc(C#N)cc3)CC2)cc1NS(C)(=O)=O` [Example 6, N-[5-[4-(4-cyanophenyl)piperidine-1-carbonyl]-2-methoxy-phenyl]methanesulfonamide], the inhibition at 100 µM is 75%.

For the compound `Cc1ccc(C(=O)N2CCC(c3ccc(CCC(=O)O)cc3)CC2)cc1NS(=O)(=O)C1CCCCC1` [Example 244, 3-[4-[1-[3-(cyclohexylsulfonylamino)-4-methylbenzoyl]piperidin-4-yl]phenyl]propanoic acid], the inhibition at 100 µM is 92.3%.

`Cc1ccc(C(=O)N2CCC(c3ccc(CNS(C)(=O)=O)cc3)CC2)cc1NS(C)(=O)=O` [Example 163, N-[[4-[1-(3-methanesulfonamido-4-methylbenzoyl)piperidin-4-yl]phenyl]methyl]methanesulfonamide]: the inhibition at 100 µM was determined as 85%.

In the case of `COCC(=O)NCCS(=O)(=O)Nc1cc(C(=O)N2CCC(c3ccc(C#N)cc3)CC2)ccc1C` [Example 87, N-[2-[[5-[4-(4-cyanophenyl)piperidine-1-carbonyl]-2-methyl-phenyl]sulfamoyl]ethyl]-2-methoxy-acetamide], the inhibition at 100 µM turned out to be 82%.
